According to patent publication US5871937A, “Acute phase protein modulating endotoxic activity of lipopolysaccharides, assay methods and polypeptides” (priority 1997, dated 1999):
Read-outs that look alike come from different tables or passages of the source.

B1: BPI: bactericidal/permeability increasing protein, a product of neutrophils (protein, UniProt P17213 32-487, looked up)
Bactericidal …: VNPGVVVRISQKGLDYASQQGTAALQKELKRIKIPDYSDSFKIKHLGKGHYSFYSMDIREFQLPSSQISMVPNVGLKFSISNANIKISGKWKAQKRFLKMSGNFDLSIEGMSISADLKLGSNPTSGKPTITCSSCSSHINSVHVHISKSKVGWLIQLFHKKIESALRNKMNSQVCEKVTNSVSSELQPYFQTLPVMTKIDSVAGINYGLVAPPATTAETLDVQMKGEFYSENHHNPPPFAPPVMEFPAAHDRMVYLGLSDYFFNTAGLVYQEAGVLKMTLRDDMIPKESKFRLTTKFFGTFLPEVAKKFPNMKIQIHVSASTPPHLSVQPTGLTFYPAVDVQAFAVLPNSSLASLFLIGMHTTGSMEVSAESNRLVGELKLDRLLLELKHSNIGPFPVELLQDIMNYIVPILVLPRVNEKLQKGFPLPTPARVQLYNVVLQPHQNFLLFGADVVYK
B2: rabbit CRP: rabbit C-reactive protein (protein, UniProt P02742 21-225, looked up)
C-reactive protein: AGMHKKAFVFPKESDNSYVSLNAQLKKPLKAFTVCLYFYTDLSMTRGYSIFSYATRRQFNEILLFWSKDIGYSFSVGGDEIIFKVSDIPVDPTHLCASWESSTGIAELWVDGKPMVRKSLKKGYILGPEASIILGQDQDSFGGSFEKQQSLVGDIGNVNMWDYALSPEEINTIYAGGTFSPNVLDWRELTYQVRGEVHVKPQLWP
B3: LBP: acute phase glycoprotein of about 60 kD that binds LPS and retards its binding to HDL (protein, UniProt P17454 27-482, looked up)
Lipopolysaccharide-binding …: TNPGLITRITDKGLEYAAREGLLALQRKLLEVTLPDSDGDFRIKHFGRAQYKFYSLKIPRFELLRGTLRPLPGQGLSLDISDAYIHVRGSWKVRKAFLRLKNSFDLYVKGLTISVHLVLGSESSGRPTVTTSSCSSDIQNVELDIEGDLEELLNLLQSQIDARLREVLESKICRQIEEAVTAHLQPYLQTLPVTTQIDSFAGIDYSLMEAPRATAGMLDVMFKGEIFPLDHRSPVDFLAPAMNLPEAHSRMVYFSISDYVFNTASLAYHKSGYWNFSITDAMVPADLNIRRTTKSFRPFVPLLANLYPNMNLELQGTVNSEQLVNLSTENLLEEPEMDIEALVVLPSSAREPVFRLGVATNVSATLTLNTRKITGFLKPGRLQVELKESKVGGFNVELLEALLNYYILNNLYPKVNEKLAHRFPLPLLRHIQLYDLLLQTHENFLLVGANIQYRRV

Columns and labels:
purified lapine LBP [1] = molecular target: T1, purified lapine LBP (Oryctolagus cuniculus, UniProt P17454); assay: Microtiter binding assay: inhibition of LBP binding to Re595 LPS-coated plates; design: species or system rabbit; details: for Inhibition of LBP binding to LPS plate, in words: qualitative analysis of Table IV; for IC50: read-out: ED50 (the source's name) (converted)
T1 construct: the mature secreted protein present in impure form in acute phase sera; from tissue; host or cells: acute phase rabbit serum (silver nitrate induced), Bio-Rex 70 and Mono-Q columns
Text: (§1) The binding of purified lapine LBP to LPS immobilized on plastic microtiter plates has also been examined. The presence of LBP bound to LPS was detected with goat anti-rabbit LBP and peroxidase conjugated rabbit anti-goat IgG.
The data from these studies are shown in Table IV, below, where the numerical results are the concentrations necessary to reduce the binding of 1 microgram (ug)/ml LBP to the plate by 50 percent; i.e., ED50. It is noted that in some instances, the structure of the inhibitor is either not fully defined or the inhibitor is heterogeneous, thereby preventing a calculation of a molar concentration for ED50.
(§2) Microtiter plates were coated with LPS by incubating 100 ul/well of 30 ug/ml Re595 LPS in 0.1M Na2 Co3, 20 mM EDTA, pH 9.6 for 3 hours at 37°. The LPS solution was flicked out, the plates rinsed thoroughly under running water and air dried overnight. The binding properties of the dried, LPS-coated plates remain unchanged for up to eight weeks. Excess binding sites were then blocked with 200 ul/well of 10 mg/ml BSA in 50 mM HEPES, 0.15M NaCl, pH 7.4 (HS buffer) for 30 minutes at 37° temperature with agitation, after which the BSA solution was flicked out.
LBP samples, APRS, or NRS were added in a total volume of 100 ul/well diluted in 1 mg/ml BSA in HS buffer. Binding of LBP was allowed to occur for 3 hours at 37°. The plate was then rinsed 3 times with 200 ul/well of 1 mg/ml BSA in HS buffer with agitation over a 10 minute interval.
Goat anti-LBP serum, 100 ul/well, diluted 2000 times in 1 mg/ml BSA in HS buffer was then incubated in the wells for 2 hours at 37°. The anti-LBP antiserum was then rinsed out as above and replaced for 1 hour at room temperature with 100 ul/well of peroxidase conjugated rabbit anti-goat IgG diluted 2500 times in 1 mg/ml BSA.
(§3) Finally, 100 ul/well o-phenylenediamine solution (4 mM o-phenylenediamine, 2.3 mM H2 O2, 50 mM citric acid, 133 mM Na2 HPO4, pH 5.0) were added and the resulting composition maintained until sufficient color had developed (5-15 minutes). The reaction was stopped by addition of 100 ul/well 5M H2 SO4 and the absorbance at 490 nm of each well was quantitated in a microtiter plate reader. Mean absorbances and standard errors of the means were calculated from 4-8 replicates of each well.
Inhibition of LBP binding to the plate was studied by premixing the compound under study at the desired concentration with 1 ug/ml purified LBP for 10 minutes at 37° before adding the mixture to the microtiter plate.

purified lapine LBP [2] = molecular target: T1, purified lapine LBP; assay: Binding of purified lapine LBP to LPS types and lipid A partial structures (microtiter plate); details: detected with goat anti-rabbit LBP and peroxidase conjugated rabbit anti-goat IgG
Method: as §1
(§4) Binding affinities of LBP for LPS are near 10^9 m^-1.
as §2, with “out. […]” for “out.”
as §3

Gram-negative bacteria = details: similar conditions for LBP and BPI; cited from earlier work
[3] = NRS reconstitution assay for LBP activity (C1.3 formation, retardation of LPS binding to HDL); format: biochemical, rabbit; details: added to NRS
Method: Two examples of the NRS reconstitution assay for lipopolysaccharide binding protein (LBP) activity in the lapine (rabbit) system are shown in FIG. 5. In control studies, no systematic dependence on the assay results were observed when smaller total assay volumes; i.e., 0.5 or 0.25 ml rather than the standrard 1 ml, were used.
The basic method used during development of the purification procedure for LBP was a reconstitution assay in which fractions of acute phase serum were assayed for their ability to reconstitute "acute phase behavior" in NRS. The screening assay used was to mix a sample of the material to be tested with 1.0 ml of NRS at 37 degrees C. for 30 minutes. LPS and EDTA were then added to the concentrations given above, and the LPS-HDL binding reaction was allowed to proceed for ten minutes at 37 degrees before addition of CsCl and centrifugation. The 10 minute reaction time was chosen as a compromise between the times required for LPS to bind to HDL in NRS and APRS. […]
To quantitate LBP activity in purified fractions of APRS, the reconstitution assay just described was performed with a series of different amounts of the sample being assayed up to a maximum of 200 ul per ml NRS. After centrifugation and quantitation of the LPS in C1.3, a plot of percent LPS as C1.3 versus sample volume was made. […]

[4] = Binding affinity of LBP for LPS; details: association constant
Text: as §1, §4

[5] = concentration necessary to reduce the binding of 1 ug/ml LBP to the Re595 LPS-coated plate by 50 percent
[6] = concentration necessary to reduce the binding of 1 ug/ml LBP to the plate by 50 percent

Molecule	ED50 (purified lapine LBP [1]; [5])	Inhibition of LBP binding to LPS plate, in words (purified lapine LBP [1])	IC50 (purified lapine LBP [1]; [5]) [µM]	IC50 (purified lapine LBP [1]; [6]) [µM]	also measured
Dextran sulfate	73 ng/mL	fairly good ligands	–	–	–
CCCCCCCCCCCCCC(=O)O[C@H](CCCCCCCCCCC)CC(=O)O[C@@H]1[C@@H](NC(=O)C[C@@H](CCCCCCCCCCC)OC(=O)CCCCCCCCCCC)[C@H](OC[C@H]2O[C@H](OP(=O)(O)O)[C@H](NC(=O)C[C@H](O)CCCCCCCCCCC)[C@@H](OC(=O)C[C@H](O)CCCCCCCCCCC)[C@@H]2O)O[C@H](CO)[C@H]1OP(=O)(O)O [J5 LA (synthetic)]	–	–	0.0222	0.02	–
Lipoteichoic acid	480 ng/mL	fairly good ligands	–	–	–
Nc1ncnc2c1ncn2[C@@H]1O[C@H](COP(=O)(O)O)[C@@H](O)[C@H]1O [AMP, adenosine-5'-monophosphate]	–	ineffective	> 2880	> 2800	–
Heparin	21,000 ng/ml	inhibitory only at high concentrations	–	–	–
0-[2-amino-2-deoxy-N^2 -(3-hydroxytetradecanoyl)-beta-D-glucopyranosyl]-(1-6)-amino-2-deoxy-N^2 -(3-hydroxytetradecanoyl)-alpha-D-glucopyranose 1,4'-bisphosphate [DADG-BSA]	540 ng/mL	–	–	0.57	–
CCCCCCCCCCCCCC(=O)OCC(COP(=O)(O)O)OC(=O)CCCCCCCCCCCCC (stereo not drawn) [Dimyristoyl phosphatidic acid, dimyristoyl phosphatidic acid]	–	–	4.22	3.9	–
CCCCCCCCCCC[C@@H](O)CC(=O)N[C@H]1[C@@H](OP(=O)(O)O)O[C@H](CO)[C@@H](O)[C@@H]1OC(=O)C[C@H](O)CCCCCCCCCCC [Lipid x]	–	–	3.93	3.9	Binding of LBP to the substance (purified lapine LBP [2]): only poorly
CCCCCCCCCCC[C@@H](O)CC(=O)N[C@H]1[C@H](OC[C@H]2O[C@H](OP(=O)(O)O)[C@H](NC(=O)C[C@H](O)CCCCCCCCCCC)[C@@H](OC(=O)C[C@H](O)CCCCCCCCCCC)[C@@H]2O)O[C@H](CO)[C@@H](OP(=O)(O)O)[C@@H]1OC(=O)C[C@H](O)CCCCCCCCCCC [precursor IVA]	–	–	–	–	Binding of LBP to the substance (purified lapine LBP [2]): bind
B1	–	–	–	–	Bactericidal effect (Gram-negative bacteria): kills
B2	–	–	–	–	Retardation of LPS binding to HDL / reconstitution of acute phase behavior in normal rabbit serum [3]: does not reconstitute the observed phenomena
B3	–	–	–	–	Binding affinities of LBP for LPS [4]: ~10^9 m^-1; Bactericidal effect (Gram-negative bacteria): no bactericidal effects; Retardation of LPS binding to HDL / reconstitution of acute phase behavior in normal rabbit serum [3]: retards binding
